Consider one compound from US8575170B2, “Flurbiprofen analogs and methods of use in treating cancer” (The Regents of the Unversity of Colorado, a body corporate, priority 2010, dated 2013).

Like-named read-outs stand apart in the source and are kept apart here.

Format in all cases: cell-based
One assay has as its system CaLu3. The assay can be described thus: MTT cell viability, CaLu3. The conditions noted are these: Homo sapiens, Calu-3, 96 h; Adenocarcinoma lung cell line CaLu3; 4 days incubation. Here is the method:
(§1) The ability of the flurbiprofen analog compounds of the invention to inhibit cancer cell growth and survival (viability) in a variety of cancer lines was examined in a standard MTT assay for cell viability, as detailed in Example 2.
(§2) The studies reported in Tables 1-3 above were carried out by incubating the cells in the test compound for four days, under standard cell-culture conditions, and measuring cell survival on day 5 (see Example 2).
(§3) Cell growth and survival following treatment with N—[(S)-2-Fluoro-α-methyl-4-biphenylacetyl]-[L-(4-phenylphenyl)alanine]-N-(2,2,6,6-tetramethyl-4-piperidinyl)amide (GCBH-110=B1031; (S)-Fmba-L-Bip-Atmp) were measured by a rapid colorimetric assay based on the tetrazolium salt MTT (3-(4,5-dimethylthiazol-2-yl)-2,5-diphenyl tetrazolium bromide) (Mosmann, J. Immunol. Methods 65: 55-63, 1983, with minor modifications).
(§4) Briefly, approximately 1,000-5,000 cancer cells from 15 different cancer cells lines were plated in 100 μL of growth medium in 96-well flat-bottomed microtiter plates. Cells were incubated overnight to allow recovery. Compounds to be tested were added to the cells in triplicate in a range of concentrations and the cells were incubated at 37° C., 5% CO2, with 100% humidity. Control cells were treated in the same way without antagonists. […] Absorbance was immediately determined using a scanning multiwell plate reader.

Another assay has as its system HADF-2. The assay can be described thus: MTT cell viability, HADF-2. The settings on record: Pancreatic cancer cell, 96 h; Pancreatic cancer cells HADF-2; 4 days incubation.
From the text: as §1
(§5) Similar results were obtained for the effect of the B1031 compound on the 14 pancreatic tumor cells lines shown in Table 3 below, where the dose dependent effect of the compound on survival of the pancreatic cancer cell lines is shown in FIG. 5.
as §2, §3
(§6) Briefly, approximately 1,000-5,000 cancer cells from 15 different cancer cells lines were plated in 100 μL of growth medium in 96-well flat-bottomed microtiter plates. Cells were incubated overnight to allow recovery. […] Absorbance was immediately determined using a scanning multiwell plate reader.

Assay [1] relates to head and neck cancer cell lines. The assay can be described thus: MTT cell viability, panel of head and neck cancer cell lines. The method, then: as §1
(§7) A similar study was conducted on 14 […] cancer cell lines, identified in Table 2.
as §3
(§8) Briefly, approximately 1,000-5,000 cancer cells from 15 different cancer cells lines were plated in 100 μL of growth medium in 96-well flat-bottomed microtiter plates. Cells were incubated overnight to allow recovery. Compounds to be tested were added to the cells in triplicate in a range of concentrations and the cells were incubated at 37° C., 5% CO2, with 100% humidity. Control cells were treated in the same way without antagonists. […] Plates were incubated for 4 days, allowing sufficient time for cell replication and compound-induced cell death to occur. On day 5, 25 μL of a 2 mg/mL solution of MTT (Sigma) dissolved in RMPI-1640 was added to each well. The plate was incubated for 4 h at 37° C. The supernatant liquid was removed and the blue formazan complex was dissolved by adding 100 μL of 0.02 N HCl in 75% isopropanol to all wells. Absorbance was immediately determined using a scanning multiwell plate reader.
Similarly, cell growth and survival following treatment with GCBH-110=B1031 was tested using the same MTT assay in 6 head and neck cancer cell lines. GCBH-110=B1031 caused 50% cell death at concentrations between about 0.3 μM and about 2 μM under these conditions (FIG. 3). […] GCBH-110=B1031 caused 50% cell death at concentrations between about 0.2 μM and about 0.8 μM under these conditions.

In another assay the test system is Aspc-1. Put plainly: MTT cell viability, Aspc-1. The settings on record: Homo sapiens, ASPC1, 96 h; Pancreatic cancer cells Aspc-1; 4 days incubation.
From the text: as §1, §5, §2, §3, §6

The next assay has as its system Panc-327. Put plainly: MTT cell viability, Panc-327. The settings on record: Pancreatic cancer cell, 96 h; Pancreatic cancer cells Panc-327; 4 days incubation.
From the text: as §1, §5, §2, §3, §6

For a further assay, the system named is UMSCC10A. The assay can be described thus: MTT cell viability, UMSCC10A. The settings on record: UMSCC-10A; Head and neck cancer cell line UMSCC10A. Here is the method: as §1, §7, §3
(§9) Briefly, approximately 1,000-5,000 cancer cells from 15 different cancer cells lines were plated in 100 μL of growth medium in 96-well flat-bottomed microtiter plates. Cells were incubated overnight to allow recovery. Compounds to be tested were added to the cells in triplicate in a range of concentrations and the cells were incubated at 37° C., 5% CO2, with 100% humidity. Control cells were treated in the same way without antagonists. […] Plates were incubated for 4 days, allowing sufficient time for cell replication and compound-induced cell death to occur. […] Absorbance was immediately determined using a scanning multiwell plate reader. […]

A further assay concerns SW1990. The assay can be described thus: MTT cell viability, SW1990. The settings on record: Homo sapiens, 96 h; Pancreatic cancer cells SW1990; 4 days incubation.
From the text: as §1, §5, §2, §3, §6

The test system of a further assay is H446. The assay can be described thus: MTT cell viability, H446. The conditions noted are these: Homo sapiens, NCI-H446, 96 h; SCLC lung cell line H446; 4 days incubation. Here is the method:
as §1, §2, §3, §4

The test system of another assay is lung cancer cell lines. Put plainly: MTT cell viability, panel of lung cancer cell lines.
From the text: as §1
In one group of studies, the effect of compound B1031 (compound GCBH-110 above) on a variety of lung cancer cells lines identified in Tables 1A-1C was investigated FIGS. 1 and 2 are dose-response curves, showing the change in percent survival as a function of compound concentration, after four days incubation in the presence of the compound for the various cell lines tested (identified in Tables 1A-1C below). […] The 12 cell lines shown in Table 1A are all adenocarcinoma lines, a type of non-small cell lung carcinoma; the 11 cell lines shown in Table 1B, identified as adenosquamous, large cell, mesothelioma, squamous, and squaous mesothelioma, are non-small cell lung carcinoma lines; and the 7 cell lines shown in Table 1C are all small-cell lung carcinoma cell lines.
as §3, §8
Similarly, cell growth and survival following treatment with GCBH-110=B1031 was tested using the same MTT assay in 17 lung cancer cell lines. GCBH-110=B1031 caused 50% cell death at concentrations between about 0.1 μM and about 2 μM under these conditions (FIG. 2).

For the next assay, the system named is H661. Put plainly: MTT cell viability, H661. The settings on record: Homo sapiens, NCI-H661, 96 h; Large Cell lung cell line H661; 4 days incubation. The method, then:
as §1, §2, §3, §4

The subject of a further assay is L36. Put plainly: MTT cell viability, L36. The settings on record: Pancreatic cancer cell, 96 h; Pancreatic cancer cells L36; 4 days incubation.
From the text: as §1, §5, §2, §3, §6

The subject of another assay is H1703. The assay can be described thus: MTT cell viability, H1703. The settings on record: Homo sapiens, NCI-H1703, 96 h; Adenosquamous lung cell line H1703; 4 days incubation. The method, then: as §1, §2, §3, §4
Another assay relates to H460. Put plainly: MTT cell viability, H460. The settings on record: Homo sapiens, NCI-H460, 96 h; Large Cell lung cell line H460; 4 days incubation. Here is the method:
as §1, §2, §3, §4

The next assay relates to UMSCC22A. Put plainly: MTT cell viability, UMSCC22A. The conditions noted are these: Head and neck cancer cell line UMSCC22A. Here is the method:
as §1, §7, §3, §9

The test system of the next assay is H157. The assay can be described thus: MTT cell viability, H157. The conditions noted are these: Homo sapiens, NCI-H157, 96 h; Squamous lung cell line H157; 4 days incubation. The method, then:
as §1, §2, §3, §4

For another assay, the system named is H520. Put plainly: MTT cell viability, H520. The conditions noted are these: Homo sapiens, NCI-H520, 96 h; Squamous lung cell line H520; 4 days incubation. Here is the method: as §1, §2, §3, §4

For the compound `C[C@H](C(=O)N[C@@H](Cc1ccc(-c2ccccc2)cc1)C(=O)NC1CC(C)(C)NC(C)(C)C1)c1ccc(-c2ccccc2)c(F)c1` [GCBH-110, N—[(S)-2-Fluoro-α-methyl-4-biphenylacetyl]-[L-(4-phenylphenyl)alanine]-N-(2,2,6,6-tetramethyl-4-piperidinyl)amide], the IC50 in the assay with CaLu3 is 1300 nM; with HADF-2 it was 700 nM; in assay [1] (6 head and neck cancer cell lines, FIG. 3, read-out: concentrations causing 50% cell death), 300 to 2000 nM; in [1] (another panel of head and neck cancer cell lines, longer treatment exposure, FIG. 4, read-out: concentrations causing 50% cell death), 200 to 800 nM; in [1] (majority of the head and neck cell lines, read-out: IC50 value, majority of the cell lines), less than 500 nM; in assay [1] (span over 14 head and neck cancer cell lines, Table 2, FIGS. 3 and 4, read-out: IC50 values), 200 to 2000 nM. Moreover, the IC50 in the assay with Aspc-1 is 500 nM; in the assay on Panc-327, 670 nM; with UMSCC10A, 200 nM; in the assay with SW1990 it was 1500 nM; in the assay on H446 it was 440 nM; in the assay on lung cancer cell lines (17 lung cancer cell lines, FIG. 2, read-out: concentrations causing 50% cell death) it was 100 to 2000 nM. Further, the IC50 was 100 to 2000 nM with lung cancer cell lines (96 h, FIGS. 1 and 2, four days incubation, read-out: compound concentrations effective to produce 50% cell death); less than 500 nM in the assay with lung cancer cell lines (most of the lung cancer cell lines of Tables 1A-1C, read-out: IC50 value, most cell lines); 100 to 1800 nM with lung cancer cell lines (span over the 32 lung cancer cell lines of Tables 1A-1C, read-out: IC50 values); 350 nM in the assay on H661; 600 nM in the assay on L36; 360 nM in the assay on H1703. Also, the IC50 with H460 is 480 nM; in the assay with UMSCC22A, 430 nM; with H157, 210 nM; with H520, 250 nM. Also, the “IC50 fold lower than flurbiprofen (anti-cancer activity relative to flurbiprofen)” value in the assay on lung cancer cell lines (variety of lung carcinoma cells, FIG. 9) is given as “about 1000 fold”.
